Data on one molecule can be found in patent publication US20040058909A1, “Method of treatment” (priority 2003, published 2004).

The test system of data set [1] is patients suffering from Parkinson's Disease. The following applies: patients with Parkinson's Disease treated for psychoses; cited from earlier work.
Data set [2] deals with cynomolgus monkeys exposed to 1-methyl-4-phenyl-1,2,3,6-tetrahydropyridine (MPTP). How it is done:
Quetiapine may be administered to cynomolgus monkeys exposed to 1-methyl-4-phenyl-1,2,3,6-tetrahydropyridine (MPTP) and which therefore have MPTP-induced Parkinson's Disease. Such monkeys are described by Blanchet et al., Experimental Neurology, 153, 214-222 (1998).
The monkeys are assessed according to the Laval University Disability Scale for MPTP monkeys with the following motor and behavioural parameters scored: posture (normal, flexed, crouched); mobility (normal, passive); climbing (present, absent); gait (normal, abnormal); tremor (present, absent); holding food (present, absent); vocalising (present, absent); grooming (present, absent); and social interaction (present, absent).
Quetiapine may be administered at various dosage values, either alone or with varying dosages of levodopa, and scoring is carried out at regular intervals.
Quetiapine was administered subcutaneously to 8 cynomolgus monkeys at doses of 2 mg/Kg and 4 mg/Kg.

Take `OCCOCCN1CCN(C2=Nc3ccccc3Sc3ccccc32)CC1` [Quetiapine, 11-(4-[2-(2-hydroxyethoxy)ethyl]-l-piperazinyl)dibenzo[b,f] [1.4]-thiazepine]: the “exacerbation of extra-pyramidal symptoms” value in data set [1] was “no exacerbation of extra-pyramidal symptoms”. The “levodopa effect on Parkinson's Disease symptoms” value in data set [2] (quetiapine 2 mg/Kg and 4 mg/Kg subcutaneously with levodopa) is “unchanged”. In addition, the “reduction of levodopa-induced dyskinesias, compared with the 4 mg/Kg dose” value in data set [2] (quetiapine 2 mg/Kg subcutaneously, 8 cynomolgus monkeys) was “less effective”. The “reduction of maximum levodopa-induced dyskinesias” value in data set [2] (quetiapine 4 mg/Kg subcutaneously, levodopa dose sufficient to produce maximum dyskinesias, 8 cynomolgus monkeys) came to 41%. Besides, the “reduction of moderate levodopa-induced dyskinesias” value in data set [2] (quetiapine 4 mg/Kg subcutaneously, levodopa dose sufficient to produce moderate dyskinesias, 8 cynomolgus monkeys) is listed as 57%.
